Molecular target: GCN2 (Homo sapiens (Human), UniProt Q9P2K8)
Experiment: GCN2 Biochemical Assay (TR-FRET, GFP-eIF2S1 substrate phosphorylation)
Details: read-out: IC50 (GCN2 Inhibitory Activity)
How it was run: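 TR-FRET readout (Ex 340, Em 490/520 nm) after 2–3 h with Tb-labelled phospho-eIF2S1 antibody in stop mix, following a 70 min room-temperature kinase step. Reaction: in-house GCN2, GFP-eIF2S1, ATP, tRNA in Tris pH 7.5 (2× stocks 1.6 nM, 50 nM, 0.2 mM); compounds tested at 10 concentrations, with a phospho-substrate artifact counter-plate.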

Chain of GCN2 (Q9P2K8 whole entry): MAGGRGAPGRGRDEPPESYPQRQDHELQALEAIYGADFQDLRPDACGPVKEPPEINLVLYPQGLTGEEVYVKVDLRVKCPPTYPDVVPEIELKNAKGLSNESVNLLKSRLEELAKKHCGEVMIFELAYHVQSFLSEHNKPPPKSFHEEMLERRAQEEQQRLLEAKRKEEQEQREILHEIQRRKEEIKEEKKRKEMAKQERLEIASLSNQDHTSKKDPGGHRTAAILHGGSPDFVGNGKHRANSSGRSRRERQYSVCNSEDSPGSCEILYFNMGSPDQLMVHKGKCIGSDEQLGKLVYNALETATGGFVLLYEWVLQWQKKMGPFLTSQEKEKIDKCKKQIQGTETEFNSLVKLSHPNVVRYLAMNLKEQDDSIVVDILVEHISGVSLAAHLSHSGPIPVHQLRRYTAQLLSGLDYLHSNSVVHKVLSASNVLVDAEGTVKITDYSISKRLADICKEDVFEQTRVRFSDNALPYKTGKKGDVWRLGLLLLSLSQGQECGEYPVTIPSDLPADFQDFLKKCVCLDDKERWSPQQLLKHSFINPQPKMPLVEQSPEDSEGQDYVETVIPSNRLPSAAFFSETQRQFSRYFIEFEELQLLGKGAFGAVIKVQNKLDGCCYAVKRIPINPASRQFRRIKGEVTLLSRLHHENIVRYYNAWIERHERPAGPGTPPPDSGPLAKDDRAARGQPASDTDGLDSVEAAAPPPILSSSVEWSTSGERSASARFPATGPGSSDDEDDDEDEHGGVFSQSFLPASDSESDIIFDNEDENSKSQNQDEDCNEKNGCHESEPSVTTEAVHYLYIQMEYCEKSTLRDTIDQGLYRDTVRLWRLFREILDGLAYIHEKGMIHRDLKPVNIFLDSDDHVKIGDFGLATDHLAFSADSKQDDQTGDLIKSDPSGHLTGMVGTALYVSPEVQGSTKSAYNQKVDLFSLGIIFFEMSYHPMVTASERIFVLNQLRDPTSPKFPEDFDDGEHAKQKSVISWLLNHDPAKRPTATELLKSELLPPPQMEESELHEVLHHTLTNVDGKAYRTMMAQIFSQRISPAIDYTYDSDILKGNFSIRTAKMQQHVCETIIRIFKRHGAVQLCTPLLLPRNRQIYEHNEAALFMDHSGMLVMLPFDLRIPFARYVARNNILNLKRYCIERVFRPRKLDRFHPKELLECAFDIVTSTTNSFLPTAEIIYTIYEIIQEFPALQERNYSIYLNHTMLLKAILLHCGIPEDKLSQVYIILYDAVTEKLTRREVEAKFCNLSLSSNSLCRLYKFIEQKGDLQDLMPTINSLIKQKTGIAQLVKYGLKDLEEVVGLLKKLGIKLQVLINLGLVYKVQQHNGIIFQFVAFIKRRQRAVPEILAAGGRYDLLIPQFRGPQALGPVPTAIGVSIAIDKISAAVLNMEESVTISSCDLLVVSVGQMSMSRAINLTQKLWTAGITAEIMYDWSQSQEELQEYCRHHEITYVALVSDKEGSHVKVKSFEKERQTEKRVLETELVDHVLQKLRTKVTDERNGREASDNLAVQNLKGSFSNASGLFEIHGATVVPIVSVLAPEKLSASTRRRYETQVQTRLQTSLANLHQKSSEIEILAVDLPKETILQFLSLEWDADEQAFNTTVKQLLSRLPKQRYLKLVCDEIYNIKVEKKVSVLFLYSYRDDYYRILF

| Structure (SMILES) | IC50 [nM] |
| --- | --- |
| CCNC(=O)/C=C/c1cccc2c1CN(c1cccc3c(-c4nc(Nc5cc(C)n(C)n5)ncc4C)c[nH]c13)C2=O [Example 364, (E)-3-(2-(3-(2-((1,5-dimethyl-1H-pyrazol-3-yl)amino)-5-methylpyrimidin-4-yl)-1H-indol-7-yl)-1-oxoisoindolin-4-yl)-N-ethylacrylamide] | < 10 |
| Cc1cnc(Nc2cc(C)n(C)n2)nc1-c1c[nH]c2c(N3Cc4c(/C=C/C(=O)NC5CC5)cccc4C3=O)cccc12 [Example 365, (E)-N-cyclopropyl-3-(2-(3-(2-((1,5-dimethyl-1H-pyrazol-3-yl)amino)-5-methylpyrimidin-4-yl)-1H-indol-7-yl)-1-oxoisoindolin-4-yl)acrylamide] | < 10 |
| Cc1cnc(Nc2cc(C)n(C)n2)nc1-c1c[nH]c2c(N3Cc4c(/C=C/C(=O)NN)cccc4C3=O)cccc12 [Example 366, (E)-3-(2-(3-(2-((1,5-dimethyl-1H-pyrazol-3-yl)amino)-5-methylpyrimidin-4-yl)-1H-indol-7-yl)-1-oxoisoindolin-4-yl)acrylohydrazide] | < 10 |
| CCCCN(CCCC)C(=O)/C=C/c1cccc2c1CN(c1cccc3c(-c4nc(Nc5cc(C)n(C)n5)ncc4C)c[nH]c13)C2=O [Example 369, (E)-N,N-dibutyl-3-(2-(3-(2-((1,5-dimethyl-1H-pyrazol-3-yl)amino)-5-methylpyrimidin-4-yl)-1H-indol-7-yl)-1-oxoisoindolin-4-yl)acrylamide] | 10 to 100 |
| Cc1cnc(Nc2cc(C)n(C)n2)nc1-c1c[nH]c2c(N3Cc4c(/C=C/C(=O)NCCO)cccc4C3=O)cccc12 [Example 372, (E)-3-(2-(3-(2-((1,5-dimethyl-1H-pyrazol-3-yl)amino)-5-methylpyrimidin-4-yl)-1H-indol-7-yl)-1-oxoisoindolin-4-yl)-N-(2-hydroxyethyl)acrylamide] | < 10 |
| COCCNC(=O)/C=C/c1cccc2c1CN(c1cccc3c(-c4nc(Nc5cc(C)n(C)n5)ncc4C)c[nH]c13)C2=O [Example 374, (E)-3-(2-(3-(2-((1,5-dimethyl-1H-pyrazol-3-yl)amino)-5-methylpyrimidin-4-yl)-1H-indol-7-yl)-1-oxoisoindolin-4-yl)-N-(2-methoxyethyl)acrylamide] | < 10 |
| CCNC(=O)/C(C)=C/c1cccc2c1CN(c1cccc3c(-c4nc(Nc5cc(C)n(C)n5)ncc4C)c[nH]c13)C2=O [Example 376, (E)-3-(2-(3-(2-((1,5-dimethyl-1H-pyrazol-3-yl)amino)-5-methylpyrimidin-4-yl)-1H-indol-7-yl)-1-oxoisoindolin-4-yl)-N-ethyl-2-methylacrylamide] | < 10 |
| Cc1cnc(Nc2cc(C)n(C)n2)nc1-c1c[nH]c2c(N3Cc4cc(-c5ccccc5)ccc4C3=O)cccc12 [Example 378, 2-(3-(2-((1,5-dimethyl-1H-pyrazol-3-yl)amino)-5-methylpyrimidin-4-yl)-1H-indol-7-yl)-5-phenylisoindolin-1-one] | > 1000 |
| Cc1cnc(Nc2cc(C)n(C)n2)nc1-c1c[nH]c2c(N3Cc4cccc(-c5ccccc5)c4C3=O)cccc12 [Example 382, 2-(3-(2-((1,5-dimethyl-1H-pyrazol-3-yl)amino)-5-methylpyrimidin-4-yl)-1H-indol-7-yl)-7-phenylisoindolin-1-one] | 10 to 100 |
| Cc1cnc(Nc2cc(C)n(C)n2)nc1-c1c[nH]c2c(N3Cc4cccc(C5=CCOCC5)c4C3=O)cccc12 [Example 385, 7-(3,6-dihydro-2H-pyran-4-yl)-2-(3-(2-((1,5-dimethyl-1H-pyrazol-3-yl)amino)-5-methylpyrimidin-4-yl)-1H-indol-7-yl)isoindolin-1-one] | 10 to 100 |

Other lines, results leading:

| IC50 [nM] | Structure (SMILES) |
| --- | --- |
| < 10 | Cc1cnc(Nc2cc(C)n(C)n2)nc1-c1c[nH]c2c(N3Cc4c(/C=C/C(=O)O)cccc4C3=O)cccc12 [Example 367, (E)-3-(2-(3-(2-((1,5-dimethyl-1H-pyrazol-3-yl)amino)-5-methylpyrimidin-4-yl)-1H-indol-7-yl)-1-oxoisoindolin-4-yl)acrylic acid] |
| < 10 | CCN(CC)C(=O)/C=C/c1cccc2c1CN(c1cccc3c(-c4nc(Nc5cc(C)n(C)n5)ncc4C)c[nH]c13)C2=O [Example 368, (E)-3-(2-(3-(2-((1,5-dimethyl-1H-pyrazol-3-yl)amino)-5-methylpyrimidin-4-yl)-1H-indol-7-yl)-1-oxoisoindolin-4-yl)-N,N-diethylacrylamide] |
| < 10 | Cc1cnc(Nc2cc(C)n(C)n2)nc1-c1c[nH]c2c(N3Cc4c(/C=C/C(=O)NC(C)(C)C)cccc4C3=O)cccc12 [Example 371, (E)-N-(tert-butyl)-3-(2-(3-(2-((1,5-dimethyl-1H-pyrazol-3-yl)amino)-5-methylpyrimidin-4-yl)-1H-indol-7-yl)-1-oxoisoindolin-4-yl)acrylamide] |
| < 10 | CCCNC(=O)/C=C/c1cccc2c1CN(c1cccc3c(-c4nc(Nc5cc(C)n(C)n5)ncc4C)c[nH]c13)C2=O [Example 373, (E)-3-(2-(3-(2-((1,5-dimethyl-1H-pyrazol-3-yl)amino)-5-methylpyrimidin-4-yl)-1H-indol-7-yl)-1-oxoisoindolin-4-yl)-N-propylacrylamide] |
| < 10 | Cc1cnc(Nc2cc(C)n(C)n2)nc1-c1c[nH]c2c(N3Cc4c(/C=C/CO)cccc4C3=O)cccc12 [Example 375, (E)-2-(3-(2-((1,5-dimethyl-1H-pyrazol-3-yl)amino)-5-methylpyrimidin-4-yl)-1H-indol-7-yl)-4-(3-hydroxyprop-1-en-1-yl)isoindolin-1-one] |
| < 10 | Cc1cnc(Nc2cc(C)n(C)n2)nc1-c1c[nH]c2c(N3Cc4c(cccc4-c4ccccc4)C3=O)cccc12 [Example 377, 2-(3-(2-((1,5-dimethyl-1H-pyrazol-3-yl)amino)-5-methylpyrimidin-4-yl)-1H-indol-7-yl)-4-phenylisoindolin-1-one] |
| 100 to 1000 | Cc1cnc(Nc2cc(C)n(C)n2)nc1-c1c[nH]c2c(N3Cc4ccc(-c5ccccc5)cc4C3=O)cccc12 [Example 379, 2-(3-(2-((1,5-dimethyl-1H-pyrazol-3-yl)amino)-5-methylpyrimidin-4-yl)-1H-indol-7-yl)-6-phenylisoindolin-1-one] |
| < 10 | Cc1cnc(Nc2cc(C)n(C)n2)nc1-c1c[nH]c2c(N3Cc4ccc(-c5ccncc5)cc4C3=O)cccc12 [Example 380, 2-(3-(2-((1,5-dimethyl-1H-pyrazol-3-yl)amino)-5-methylpyrimidin-4-yl)-1H-indol-7-yl)-6-(pyridin-4-yl)isoindolin-1-one] |
| < 10 | Cc1cnc(Nc2cc(C)n(C)n2)nc1-c1c[nH]c2c(N3Cc4ccc(C5=CCNCC5)cc4C3=O)cccc12 [Example 381, 2-(3-(2-((1,5-dimethyl-1H-pyrazol-3-yl)amino)-5-methylpyrimidin-4-yl)-1H-indol-7-yl)-6-(1,2,3,6-tetrahydropyridin-4-yl)isoindolin-1-one] |
| < 10 | Cc1cnc(Nc2cc(C)n(C)n2)nc1-c1c[nH]c2c(N3Cc4cccc(-c5ccncc5)c4C3=O)cccc12 [Example 383, 2-(3-(2-((1,5-dimethyl-1H-pyrazol-3-yl)amino)-5-methylpyrimidin-4-yl)-1H-indol-7-yl)-7-(pyridin-4-yl)isoindolin-1-one] |
| 100 to 1000 | Cc1cnc(Nc2cc(C)n(C)n2)nc1-c1c[nH]c2c(N3Cc4cccc(C5=CCCCC5)c4C3=O)cccc12 [Example 384, 7-(cyclohex-1-en-1-yl)-2-(3-(2-((1,5-dimethyl-1H-pyrazol-3-yl)amino)-5-methylpyrimidin-4-yl)-1H-indol-7-yl)isoindolin-1-one] |
